Test results as given in paper PMC7725843, “Structural and biochemical analyses of an aminoglycoside 2′-N-acetyltransferase from Mycolicibacterium smegmatis” (Scientific Reports, 2020).

Experiments:
[1] = molecular target: T1, AAC(2′)-Id (Mycolicibacterium smegmatis, UniProt P94968); assay: DTNB assay of CoA release at […] nm, Michaelis-Menten fit; type: biochemical; conditions: 300 μM acetyl-CoA, 50 mM MES pH 6.5, 200 μM DTNB, 25 °C
T1 construct: full-length ORF (630 bp), codon-optimised synthetic gene in pET-28a(+), E. coli BL21(DE3); N-terminal His-tag cut with thrombin; homodimer
T1 sequence (P94968 whole entry): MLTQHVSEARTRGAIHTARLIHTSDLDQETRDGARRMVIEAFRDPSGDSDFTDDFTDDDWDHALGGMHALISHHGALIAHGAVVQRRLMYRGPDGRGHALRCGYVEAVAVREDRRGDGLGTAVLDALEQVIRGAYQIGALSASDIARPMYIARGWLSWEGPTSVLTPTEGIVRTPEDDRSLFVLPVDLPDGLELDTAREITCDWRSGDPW

[2] = molecular target: T1, AAC(2′)-Id; assay: X-ray crystal structure; type: binding; conditions: ternary complexes with gentamicin, sisomicin, neomycin or paromomycin; 5 mM CoA

`CN[C@@H]1[C@@H](O)[C@@H](O[C@@H]2[C@@H](O)[C@H](O[C@H]3OC(CN)=CC[C@H]3N)[C@@H](N)C[C@H]2N)OC[C@]1(C)O` [Sisomicin] was tested, and the “Km (μM)” value [1] was “(7.30 ± 0.58) × 10 μM”.

With `CC(C)(COP(=O)(O)OP(=O)(O)OC[C@H]1O[C@@H](n2cnc3c(N)ncnc32)[C@H](O)[C@@H]1OP(=O)(O)O)[C@@H](O)C(=O)NCCC(=O)NCCS` [CoA] the X-ray crystal structure [2] was “chain B contains only a CoA molecule”.
